Test results as given in the supplement of paper PMC9013687.

Key:
Danio rerio embryo [1] = details: exposure time: 4 dpf
Experimental: (§1)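 Zebrafish embryos (UFZ-OBI strain) were exposed from 2 hpf for 48 h (2 dpf) or 96 h (4 dpf) at 28 °C; spontaneous tail coiling was scored at 25 hpf. Morphological features from automated image analysis (FishInspector), heart rate and locomotor response were fitted with drc models. Quantal endpoints were dichotomised at 2.5 SD from controls and fitted with a log-logistic model; heart rate, pigmentation and STC were normalised to the replicate control mean. Betamethasone was tested as betamethasone dipropionate, diflorasone as diflorasone diacetate.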

Danio rerio embryo [2] = tested on: Danio rerio embryo
Experimental: as §1

Danio rerio embryo [3] = details: exposure time: 4 dpf; remark: listed apart in the source
Experimental: as §1

Danio rerio embryo [4] = assay: EC50 Body length_Decrease; details: exposure time: 2 dpf
Experimental: as §1

Danio rerio embryo [5] = assay: EC50 Bladder size_Decrease; details: exposure time: 4 dpf
Experimental: as §1

Danio rerio embryo [6] = assay: EC50 Pericard size_Increase; details: exposure time: 4 dpf
Experimental: as §1

Danio rerio embryo [7] = assay: EC50 Yolk sac size_Increase; details: exposure time: 4 dpf
Experimental: as §1

Danio rerio embryo [8] = assay: EC50 Eye-jaw distance_Decrease; details: exposure time: 4 dpf
Experimental: as §1

Danio rerio embryo [9] = assay: EC10 LMR dark; higher = less potent; details: exposure time: 4 dpf
Experimental: as §1

Danio rerio embryo [10] = assay: EC20 LMR dark; higher = less potent; details: exposure time: 4 dpf
Experimental: as §1

Danio rerio embryo [11] = assay: EC10 Heart rate; higher = less potent
Experimental: as §1

Danio rerio embryo [12] = assay: EC10 Lack of SB; higher = less potent; details: exposure time: 4 dpf
Experimental: as §1

Danio rerio embryo [13] = assay: EC20 Lack of SB; higher = less potent; details: exposure time: 4 dpf
Experimental: as §1

Danio rerio embryo [14] = assay: EC20 Any effect; higher = less potent
Experimental: as §1

Danio rerio embryo [15] = assay: EC10 Any effect; higher = less potent
Experimental: as §1

Danio rerio embryo [16] = assay: EC20 Heart rate; higher = less potent
Experimental: as §1

Danio rerio embryo [17] = assay: EC10 STC decrease; higher = less potent; details: exposure time: 25 h
Experimental: as §1

Danio rerio embryo [18] = assay: EC20 STC decrease; higher = less potent; details: exposure time: 25 h
Experimental: as §1

Danio rerio embryo [19] = assay: EC20 Body length_Decrease; higher = less potent; details: exposure time: 2 dpf
Experimental: as §1

Danio rerio embryo [20] = assay: EC10 Body length_Decrease; higher = less potent; details: exposure time: 2 dpf
Experimental: as §1

Danio rerio embryo [21] = assay: EC10 Pigmentation increase; higher = less potent; details: exposure time: 4 dpf
Experimental: as §1

Danio rerio embryo [22] = assay: EC10 Bladder size_Decrease; higher = less potent; details: exposure time: 4 dpf
Experimental: as §1

Danio rerio embryo [23] = assay: EC20 Pigmentation increase; higher = less potent; details: exposure time: 4 dpf
Experimental: as §1

Danio rerio embryo [24] = assay: EC20 Bladder size_Decrease; higher = less potent; details: exposure time: 4 dpf
Experimental: as §1

Danio rerio embryo [25] = assay: EC20 Yolk sac size_Increase; higher = less potent; details: exposure time: 4 dpf
Experimental: as §1

Danio rerio embryo [26] = assay: EC20 Pericard size_Increase; higher = less potent; details: exposure time: 4 dpf
Experimental: as §1

Danio rerio embryo [27] = assay: EC10 Yolk sac size_Increase; higher = less potent; details: exposure time: 4 dpf
Experimental: as §1

Danio rerio embryo [28] = assay: EC10 Pericard size_Increase; higher = less potent; details: exposure time: 4 dpf
Experimental: as §1

Danio rerio embryo [29] = assay: EC20 Eye-jaw distance_Decrease; higher = less potent; details: exposure time: 4 dpf
Experimental: as §1

Danio rerio embryo [30] = assay: EC10 Eye-jaw distance_Decrease; higher = less potent; details: exposure time: 4 dpf
Experimental: as §1

Danio rerio embryo [31] = assay: spontaneous tail coiling frequency (coils/min/embryo); higher = more spontaneous movement; details: 25 hpf
Experimental: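 Spontaneous tail coilings of zebrafish embryos exposed from 2 hpf were recorded at 24-25 hpf in 1-min videos and detected by a KNIME workflow from grey-value variance. Betamethasone was tested as the dipropionate, diflorasone as the diacetate.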

CNCCC=C1c2ccccc2CCc2ccccc21 [Nortriptyline]
Details | EC10 Bladder size Decrease [µM] | EC10 Body length Decrease [µM] | EC10 Eye-jaw distance Decrease [µM] | EC10 LMR dark [µM] | EC10 Lack of SB [µM] | EC10 Pericard size Increase [µM] | EC10 Pigmentation increase [µM] | EC10 STC decrease [µM] | EC10 Yolk sac size Increase [µM] | EC20 Bladder size Decrease [µM] | EC20 Body length Decrease [µM] | EC20 Eye-jaw distance Decrease [µM] | EC20 LMR dark [µM] | EC20 Lack of SB [µM] | EC20 Pericard size Increase [µM] | EC20 Pigmentation increase [µM] | EC20 STC decrease [µM] | EC20 Yolk sac size Increase [µM] | EC50 Bladder size Decrease [µM] | EC50 Body length Decrease [µM] | EC50 Eye-jaw distance Decrease [µM] | EC50 LMR dark [µM] | EC50 Lack of SB [µM] | EC50 Pericard size Increase [µM] | EC50 Yolk sac size Increase [µM]
Danio rerio embryo [1] | – | – | – | – | – | – | – | – | – | – | – | – | – | – | – | – | – | – | – | – | – | – | 5.07 | – | –
Danio rerio embryo [3] | – | – | – | – | – | – | – | – | – | – | – | – | – | – | – | – | – | – | – | – | – | 10.3 | – | – | –
Danio rerio embryo [4] | – | – | – | – | – | – | – | – | – | – | – | – | – | – | – | – | – | – | – | 40.6 | – | – | – | – | –
Danio rerio embryo [5] | – | – | – | – | – | – | – | – | – | – | – | – | – | – | – | – | – | – | 5.07 | – | – | – | – | – | –
Danio rerio embryo [6] | – | – | – | – | – | – | – | – | – | – | – | – | – | – | – | – | – | – | – | – | – | – | – | 20.4 | –
Danio rerio embryo [7] | – | – | – | – | – | – | – | – | – | – | – | – | – | – | – | – | – | – | – | – | – | – | – | – | 29.2
Danio rerio embryo [8] | – | – | – | – | – | – | – | – | – | – | – | – | – | – | – | – | – | – | – | – | 21.5 | – | – | – | –
Danio rerio embryo [9] | – | – | – | 0.745 | – | – | – | – | – | – | – | – | – | – | – | – | – | – | – | – | – | – | – | – | –
Danio rerio embryo [10] | – | – | – | – | – | – | – | – | – | – | – | – | 1.96 | – | – | – | – | – | – | – | – | – | – | – | –
Danio rerio embryo [12] | – | – | – | – | 4.59 | – | – | – | – | – | – | – | – | – | – | – | – | – | – | – | – | – | – | – | –
Danio rerio embryo [13] | – | – | – | – | – | – | – | – | – | – | – | – | – | 4.76 | – | – | – | – | – | – | – | – | – | – | –
Danio rerio embryo [17] | – | – | – | – | – | – | – | 3.44 | – | – | – | – | – | – | – | – | – | – | – | – | – | – | – | – | –
Danio rerio embryo [18] | – | – | – | – | – | – | – | – | – | – | – | – | – | – | – | – | 8.4 | – | – | – | – | – | – | – | –
Danio rerio embryo [19] | – | – | – | – | – | – | – | – | – | – | 36.3 | – | – | – | – | – | – | – | – | – | – | – | – | – | –
Danio rerio embryo [20] | – | 34 | – | – | – | – | – | – | – | – | – | – | – | – | – | – | – | – | – | – | – | – | – | – | –
Danio rerio embryo [21] | – | – | – | – | – | – | 0.889 | – | – | – | – | – | – | – | – | – | – | – | – | – | – | – | – | – | –
Danio rerio embryo [22] | 4.59 | – | – | – | – | – | – | – | – | – | – | – | – | – | – | – | – | – | – | – | – | – | – | – | –
Danio rerio embryo [23] | – | – | – | – | – | – | – | – | – | – | – | – | – | – | – | 1.83 | – | – | – | – | – | – | – | – | –
Danio rerio embryo [24] | – | – | – | – | – | – | – | – | – | 4.76 | – | – | – | – | – | – | – | – | – | – | – | – | – | – | –
Danio rerio embryo [25] | – | – | – | – | – | – | – | – | – | – | – | – | – | – | – | – | – | 18.7 | – | – | – | – | – | – | –
Danio rerio embryo [26] | – | – | – | – | – | – | – | – | – | – | – | – | – | – | 17.8 | – | – | – | – | – | – | – | – | – | –
Danio rerio embryo [27] | – | – | – | – | – | – | – | – | 14.5 | – | – | – | – | – | – | – | – | – | – | – | – | – | – | – | –
Danio rerio embryo [28] | – | – | – | – | – | 16.5 | – | – | – | – | – | – | – | – | – | – | – | – | – | – | – | – | – | – | –
Danio rerio embryo [29] | – | – | – | – | – | – | – | – | – | – | – | 18.3 | – | – | – | – | – | – | – | – | – | – | – | – | –
Danio rerio embryo [30] | – | – | 16.6 | – | – | – | – | – | – | – | – | – | – | – | – | – | – | – | – | – | – | – | – | – | –

Details | EC10 Any effect [µM] | EC10 Heart rate [µM] | EC20 Any effect [µM] | EC20 Heart rate [µM] | EC50 Any effect [µM] | EC50 STC decrease [µM] | spontaneous tail coiling frequency
Danio rerio embryo [2], exposure time: 2 dpf | – | – | – | – | 50.5 | – | –
Danio rerio embryo [2], exposure time: 4 dpf | – | – | – | – | 22.1 | – | –
Danio rerio embryo [2], exposure time: 25 h | – | – | – | – | – | 39 | –
Danio rerio embryo [11], exposure time: 2 dpf | – | 39.8 | – | – | – | – | –
Danio rerio embryo [11], exposure time: 4 dpf | – | 9.66 | – | – | – | – | –
Danio rerio embryo [14], exposure time: 2 dpf | – | – | 36.4 | – | – | – | –
Danio rerio embryo [14], exposure time: 4 dpf | – | – | 19.1 | – | – | – | –
Danio rerio embryo [15], exposure time: 2 dpf | 30 | – | – | – | – | – | –
Danio rerio embryo [15], exposure time: 4 dpf | 17.5 | – | – | – | – | – | –
Danio rerio embryo [16], exposure time: 2 dpf | – | – | – | 79.7 | – | – | –
Danio rerio embryo [16], exposure time: 4 dpf | – | – | – | 19.3 | – | – | –
Danio rerio embryo [31], 0.3 µM | – | – | – | – | – | – | 2.44
Danio rerio embryo [31], 3.3 µM | – | – | – | – | – | – | 2.01
Danio rerio embryo [31], 13.2 µM | – | – | – | – | – | – | 2.12
Danio rerio embryo [31], 16.9 µM | – | – | – | – | – | – | 1.32
Danio rerio embryo [31], 19.8 µM | – | – | – | – | – | – | 2.06
Danio rerio embryo [31], 29.6 µM | – | – | – | – | – | – | 1.39
Danio rerio embryo [31], 33.9 µM | – | – | – | – | – | – | 1.27
Danio rerio embryo [31], 44.5 µM | – | – | – | – | – | – | 1.1
Danio rerio embryo [31], 66.7 µM | – | – | – | – | – | – | 1.79
Danio rerio embryo [31], 67.8 µM | – | – | – | – | – | – | 1.17
Danio rerio embryo [31], 100 µM | – | – | – | – | – | – | 0.43
Danio rerio embryo [31], 100.1 µM | – | – | – | – | – | – | 1.13
Danio rerio embryo [31], 133.4 µM | – | – | – | – | – | – | 0.28
Danio rerio embryo [31], 135.6 µM | – | – | – | – | – | – | 0
